Measurements from BindingDB's records for patent US10654860 (Bristol Myers Squibb, 2020).

Target: Rho-associated protein kinase 2 (Homo sapiens, UniProt O75116)
Experiment: In Vitro Assay
Experimental: The effectiveness of compounds of the present invention as ROCK inhibitors can be determined in a 30 μL, assay containing 20 mM HEPES, pH 7.5, 20 mM MgCl2, 0.015% Brij-35, 4 mM DTT, 5 μM ATP and 1.5 μM peptide substrate (FITC-AHA-AKRRRLSSLRA-OH). Compounds were dissolved in DMSO so that the final concentration of DMSO was <2%, and the reaction was initiated with Rho kinase variants. After incubation, the reaction was terminated by the addition of EDTA and the phosphorylated and non-phosphorylated peptides separated using a LABCHIP 3000 Reader (Caliper Life Sciences). […] Compounds were tested in dose-response format, and the inhibition of kinase activity was calculated at each concentration of compound.

Chain of Rho-associated protein kinase 2 (O75116 whole entry): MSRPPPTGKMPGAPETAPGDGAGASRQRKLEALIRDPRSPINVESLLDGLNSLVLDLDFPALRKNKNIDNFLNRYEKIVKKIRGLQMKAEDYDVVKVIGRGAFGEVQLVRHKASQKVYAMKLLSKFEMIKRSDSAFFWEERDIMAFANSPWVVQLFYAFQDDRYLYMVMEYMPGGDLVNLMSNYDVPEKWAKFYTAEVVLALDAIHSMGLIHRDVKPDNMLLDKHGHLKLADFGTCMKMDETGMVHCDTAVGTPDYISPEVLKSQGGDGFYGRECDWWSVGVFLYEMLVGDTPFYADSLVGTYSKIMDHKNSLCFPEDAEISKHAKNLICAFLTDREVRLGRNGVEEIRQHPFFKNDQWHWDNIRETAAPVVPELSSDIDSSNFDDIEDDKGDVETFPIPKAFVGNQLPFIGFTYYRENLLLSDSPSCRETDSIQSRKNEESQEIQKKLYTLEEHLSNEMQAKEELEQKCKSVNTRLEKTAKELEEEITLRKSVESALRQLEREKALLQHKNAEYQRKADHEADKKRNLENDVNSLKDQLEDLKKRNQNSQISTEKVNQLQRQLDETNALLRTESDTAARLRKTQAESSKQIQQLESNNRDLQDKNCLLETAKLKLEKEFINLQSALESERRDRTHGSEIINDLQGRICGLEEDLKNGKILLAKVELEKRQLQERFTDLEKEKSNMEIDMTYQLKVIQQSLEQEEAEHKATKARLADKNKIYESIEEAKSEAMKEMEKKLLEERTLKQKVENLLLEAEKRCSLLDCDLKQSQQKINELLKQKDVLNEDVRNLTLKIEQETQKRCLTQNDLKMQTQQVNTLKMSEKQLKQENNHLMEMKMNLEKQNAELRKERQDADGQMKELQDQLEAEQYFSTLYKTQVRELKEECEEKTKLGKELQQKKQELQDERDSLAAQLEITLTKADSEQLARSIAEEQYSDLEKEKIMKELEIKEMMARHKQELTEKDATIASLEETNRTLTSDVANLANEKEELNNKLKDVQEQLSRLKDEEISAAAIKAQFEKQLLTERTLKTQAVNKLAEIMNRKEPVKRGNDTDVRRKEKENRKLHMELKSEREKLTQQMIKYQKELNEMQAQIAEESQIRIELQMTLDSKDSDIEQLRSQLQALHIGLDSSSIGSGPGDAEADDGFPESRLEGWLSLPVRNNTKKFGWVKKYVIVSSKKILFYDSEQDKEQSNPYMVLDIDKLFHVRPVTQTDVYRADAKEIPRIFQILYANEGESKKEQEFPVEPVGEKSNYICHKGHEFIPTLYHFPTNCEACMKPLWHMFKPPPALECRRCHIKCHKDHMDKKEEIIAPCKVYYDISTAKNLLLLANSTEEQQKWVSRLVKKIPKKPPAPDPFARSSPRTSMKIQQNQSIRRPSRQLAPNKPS

## N[C@H](CCc1ccccc1)C(=O)Nc1ccc2c(c1)CCc1n[nH]cc1-2 [US10654860, Example 4]
  IC50: < 10 nM
